CS(=O)(=O)c1ccc(C=O)cc1
solubility (mole fraction)
Settings	in acetic acid	in acetone	in acetonitrile	in ethanol	in isopropanol	in methanol	in n-butanol	in n-propanol	in toluene
283.15 K	0.00336	0.00798	0.00598	0.000869	0.000288	0.00206	0.000596	0.000541	0.000746
285.65 K	0.00368	0.00872	0.00661	0.000944	0.000321	0.0022	0.000652	0.000587	0.000825
288.15 K	0.00401	0.00937	0.00734	0.00103	0.000355	0.00242	0.000724	0.000659	0.000919
290.65 K	0.00445	0.0104	0.00814	0.00117	0.000405	0.00266	0.000828	0.000742	0.00103
293.15 K	0.00488	0.0114	0.00903	0.0013	0.000445	0.00295	0.000923	0.000835	0.00115
295.65 K	0.00539	0.0126	0.0101	0.00143	0.000502	0.00325	0.00102	0.000933	0.00128
298.15 K	0.00598	0.0136	0.0111	0.00158	0.00056	0.00358	0.00114	0.00105	0.00144
300.65 K	0.00662	0.0148	0.0123	0.00174	0.000629	0.00392	0.00128	0.00115	0.00161
303.15 K	0.00727	0.0161	0.0137	0.00192	0.000703	0.00431	0.0014	0.00126	0.0018
305.65 K	0.00811	0.0174	0.0152	0.00212	0.000796	0.00471	0.00155	0.00141	0.002
308.15 K	0.00895	0.0189	0.017	0.00235	0.000894	0.00518	0.00171	0.00157	0.00224
310.65 K	0.00984	0.0206	0.019	0.00258	0.00101	0.00572	0.00191	0.00176	0.0025
313.15 K	0.0108	0.0226	0.021	0.00284	0.00112	0.00623	0.00211	0.00194	0.00276
315.65 K	0.0118	0.0245	0.023	0.00311	0.00125	0.00678	0.00232	0.00216	0.00308
318.15 K	0.0129	0.0269	0.0252	0.00341	0.00139	0.00739	0.0026	0.00241	0.0034
